Laboratory results taken from patent US5051417A, “Indolythiadiazines for treating heart failure” (Les Laboratoires Beecham S.A., priority 1988, dated 1991).
Where a name gives a salt, the structure may show the parent alone.

Test system: canine cardiac myofibrillar Ca++-dependent Mg++-ATPase
Assay: Measurement of myofibrillar Ca++-dependent Mg++-ATPase activity on canine cardiac myofibrils
Type: biochemical
Conditions: pH 7.0, 21° C.; for max (percent change of maximal ATPase activity): pCa=5.47
Description: 1. Measurement of myofibrillar Ca++-dependent Mq++-ATPase activity The effect on myofibrillar Ca++sensitivity and on maximal activity of myofibrillar Ca++-dependent Mg++-ATPase was determined on canine cardiac myofibrils. (a) Contractile protein preparation Cardiac myofibrils free of membrane contaminants were prepared from left ventricular tissue of dog hearts using a modification of the method described by SOLARO et al, Biochem. Biophys. Acta, 245, 259-262, (1971). Before centrifugation, the heart homogenate was filtered through gauze. After Triton X-100 treatments, the myofibrillar fraction was washed once by resuspension and centrifugation in 10 volumes of 1 mM EGTA, […], 30 mM imidazole, 2 mM MgCl2, pH 7.0. The pellet was then washed three times in 10 volumes of the same buffer without EGTA. Before the last centrifugation, the suspension of myofibrils was filtered through a stainless steel sieve with 0.25 mm meshes. Myofibrils were kept in pellet overnight. Before use, the pellet was suspended in a small amount of buffer, the protein concentration was determined by the method of BRADFORD M., Anal. Biochem., 1976, 72, 248 and adjusted in order to have a concentration between 6 and 7 mg/ml. (b) Myofibrillar ATPase activity Ca++-dependent myfibrillar ATPase activity was determined at 21° C., pH 7.0, by measuring the rate of release of inorganic phosphate. All assays were performed within 24hrs. of final purification, using the method described by SOLARO and […]., 51. 290-4,(1982). Reaction mixtures (4 ml) containing 0.6-0.7 mg/ml myofibrillar protein, 80mM KCl, 20 mM imidazole, 3 mM MgCl2, 1 mM EGTA, the desired amount of CaCl2, and the indicated concentration of drug or appropriate vehicle were preincubated for 6 min. prior to assay. The amount of CaCl2 was varied between 0 and 0.9 mM and the pCa (-log free Ca++) computed using 2.514×10^6 M^-1 as the apparent affinity of Ca++for EGTA at pH 7.0. Reactions were initiated by the addition of Na2 ATP to final concentration of 2 mM. After an incubation period of 12 min., reactions were quenched by the addition of an equal volume of ice-cold 10% trichloroacetic acid. The protein was pelleted by centrifugation (2000 g, 15 min.) and Pi was assayed in the supernatant fraction using a modification of the method described by LANZETTA et al, Anal. Biochem., 100, 95-97, (1979). The following solutions were prepared: (1) 3.7% ammonium heptamolybdate in 0.12 N H2 SO4 (2) 0.074% malachite green oxalate in 1% polyvinylic alcohol. The colour reagent was prepared by mixing an equal volume of solution (1) and (2) 15 min. before the assay. For the assay, 1,700 μl of 1% H2 SO4 and 1 ml of colour reagent were added to 100 μl of sample. Colour development occurred at room temperature for 30 min. and was quenched by the addition of 200 μl of 1M tri-potassium citrate. The absorbance was measured at 620 millimicrons. The effect of each compound, tested at the indicated concentration, on the relation between pCa and percent activation was determined taking 100% for the maximum ATPase activity obrained with vehicle alone. The effect on Ca++sensitivity was quantified by measuring the shift of the pCa giving 50% of the maximal control ATPase activity. The effect on maximal ATPase activity was expressed as the percent change of ATPase activity for pCa=5.47. Mean effects on myofibrillar ATPase activity were obtained from 1 to 5 preparations, (compounds tested at 2×10^-4 M).

Row | max (percent change of maximal ATPase activity) (30 μM) [%] | pCa (shift of the pCa giving 50% of the maximal control ATPase activity; Ca++ sensitivity) (30 μM) | max (percent change of maximal ATPase activity) (10 μM) [%] | pCa (shift of the pCa giving 50% of the maximal control ATPase activity; Ca++ sensitivity) (10 μM) | SMILES
1 | 2 ± 4 | +0.08 ± 0.04 |  |  | COC(=O)NN=C1C(=O)Nc2ccc(C3=NNC(=O)SC3C)cc21 (stereo not drawn) [Example 15, Methyl 2-[2,3-dihydro-5-(3,6-dihydro-6-methyl-2-oxo-2H -1,3,4-thiadiazin-5-yl)-2-oxo-1H-indol-3-ylidene]hydrazine carboxylate]
2 | 25 ± 4 | +0.78 ± 0.1 |  |  | CC1SC(=O)NN=C1c1ccc2c(c1)C(=NNc1ccc(Cl)cc1)C(=O)N2 (stereo not drawn) [Example 29, 5-(3,6-Dihydro-6-methyl-2-oxo-2H-1,3,4-thiadiazin-5-yl) -1H-indole-2,3-dione 3-[(4-chloro)phenylhydrazone]]
3 | 17 ± 2 | +0.65 ± 0.05 |  |  | CC1SC(=O)NN=C1c1ccc2c(c1)C(=NN(C)c1ccccc1)C(=O)N2 (stereo not drawn) [Example 26, 5-(3,6-Dihydro-6-methyl-2-oxo-2H-1,3,4-thiadiazin-5-yl) -1H-indole-2,3-dione 3-(methylphenylhydrazone)]
4 | 34 ± 5 | +1.05 ± 0.06 | 34 ± 7 | 1.10 ± 0.02 | CC1SC(=O)NN=C1c1ccc2c(c1)C(=NNC(=O)c1cccnc1)C(=O)N2 (stereo not drawn) [Example 38, 3-Pyridinecarboxylic acid, 2-[2,3-dihydro-5-(3,6-dihydro-6-methyl-2-oxo-2H-1,3,4-thiadiazin-5-yl)-2-oxo-1H-indol-3-ylidenelhydrazide hydrochloride]
5 | -42 ± 7 | +1.30 ± 0.00 | 41 ± 2 | 1.07 ± 0.02 | Cc1ccc(NN=C2C(=O)Nc3ccc(C4=NNC(=O)SC4C)cc32)cc1 (stereo not drawn) [Example 21, 5-(3,6-Dihydro-6-methyl-2-oxo-2H-1,3,4-thiadiazin-5-yl) -1H-indole-2,3-dione 3-[(4-methyl)phenylhydrazone]]
6 | 7 ± 2 | +0.11 ± 0.04 |  |  | CC1SC(=O)N(C)N=C1c1ccc2c(c1)C(=NNc1ccccc1)C(=O)N2 (stereo not drawn) [Example 41]
7 | 28 ± 6 | +1.01 ± 0.07 |  |  | CC1SC(=O)NN=C1c1ccc2c(c1)C(=NNc1ccc(F)cc1)C(=O)N2 (stereo not drawn) [Example 30]
8 | -14 ± 7 | +0.23 ± 0.06 |  |  | CC1SC(=O)NN=C1c1ccc2c(c1)C(=Cc1cccnc1)C(=O)N2 (stereo not drawn) [Example 19, 1,3-Dihydro-5-(3,6-dihydro-6-methyl-2-oxo-2H-1,3,4-thiadiazin-5-yl)-3-(3-pyridylmethylene)-2H-indol-2-one]
9 | 20 ± 5 | +0.94 ± 0.05 |  |  | COc1ccc(NN=C2C(=O)Nc3ccc(C4=NNC(=O)SC4C)cc32)cc1 (stereo not drawn) [Example 28, 5-(3,6-Dihydro-6-methyl-2-oxo-2H-1,3,4-thiadiazin-5-yl) -1H-indole-2,3-dione 3-[(4-methoxy)phenylhydrazone]]
10 | -13 ± 5 | +0.19 ± 0.08 |  |  | CC1SC(=O)NN=C1c1ccc2c(c1)C(=Cc1ccccn1)C(=O)N2 (stereo not drawn) [Example 20, 1,3-Dihydro-5-(3,6-dihydro-6-methyl-2-oxo-2H-1,3,4-thiadiazin-5-yl)-3-(2-pyridylmethylene)-2H-indol-2-one]
11 | -1 ± 7 | +0.10 ± 0.04 |  |  | CC1SC(=O)NN=C1c1ccc2c(c1)C(=NNc1c(F)c(F)c(F)c(F)c1F)C(=O)N2 (stereo not drawn) [Example 32, 5-(3,6-Dihydro-6-methyl-2-oxo-2H-1,3,4-thiadiazin-5-yl) -1H-indole-2,3-dione 3-(pentafluorophenylhydrazone)]
12 | 8 ± 6 | +0.05 ± 0.02 |  |  | CCOC(=O)CON=C1C(=O)Nc2ccc(C3=NNC(=O)SC3C)cc21 (stereo not drawn) [Example 23, Ethyl[[[2,3-dihydro-5-(3,6-dihydro-6-methyl-2-oxo-2H -1,3,4-thiadiazin-5-yl)-2-oxo-1H-indol-3-ylidene]amino]oxy]lacetate]
13 | 3 ± 2 | +0.04 ± 0.02 |  |  | CC1SC(=O)NN=C1c1ccc2c(c1)C(=NNC(=O)c1ccncc1)C(=O)N2 (stereo not drawn) [Example 39]
14 | 22 ± 3 | +0.49 ± 0.06 |  |  | CC1SC(=O)NN=C1c1ccc2c(c1)C(=NNC1CCCCC1)C(=O)N2 (stereo not drawn) [Example 25, 5-(3,6-Dihydro-6-methyl-2-oxo-2H-1,3,4-thiadiazin-5-yl) -1H-indole-2,3-dione 3-(cyclohexylhydrazone)]
15 | 11 ± 4 | +0.30 ± 0.02 |  |  | CC1SC(=O)NN=C1c1ccc2c(c1)C(=NNc1ccc(C(F)(F)F)cc1)C(=O)N2 (stereo not drawn) [Example 42, 5-(3,6-Dihydro-6-methyl-2-oxo-2H-1,3,4-thiadiazin-5-yl) -1H-indole-2,3-dione 3-[4-trifluoromethylphenylhydrazone]]
16 | -1 ± 0 | +0.05 ± 0.03 |  |  | CC1SC(=O)NN=C1c1ccc2c(c1)C(=NNc1ccc(Cl)c(Cl)c1)C(=O)N2 (stereo not drawn) [Example 27, 5-(3,6-Dihydro-6-methyl-2-oxo-2H-1,3,4-thiadiazin-5-yl) -1H-indole-2,3-dione 3-(3,4-dichloroohenyl)hydrazone]
17 | 1 ± 4 | +0.17 ± 0.03 |  |  | CC1SC(=O)NN=C1c1ccc2c(c1)C(=Cc1ccccc1[N+](=O)[O-])C(=O)N2 (stereo not drawn) [Example 16, 1,3-Dihydro-5-(3,6-dihydro-6-methyl-2-oxo-2H-1,3,4-thiadiazin-5-yl)-3-(2-nitrophenylmethylene)-2H-indol-2-one]
18 | 24 ± 5 | +0.92 ± 0.06 |  |  | CC1SC(=O)NN=C1c1ccc2c(c1)C(=NNc1cccnc1)C(=O)N2 (stereo not drawn) [Example 36, 5-(3,6-Dihydro-6-methyl-2-oxo-2H-1,3,4-thiadiazin-5-yl) -1H-indole-2,3-dione 3-(3-pyridylhydrazone)]
19 | -9 ± 1 | +0.14 ± 0.03 |  |  | CC1SC(=O)NN=C1c1ccc2c(c1)C(=NNC(=O)c1ccccn1)C(=O)N2 (stereo not drawn) [Example 37]
20 | 0 ± 1 | +0.05 ± 0.06 |  |  | CC1SC(=O)NN=C1c1ccc2c(c1)C(=NNc1ccccn1)C(=O)N2.Cl (stereo not drawn) [Example 35, 5-(3,6-Dihydro-6-methyl-2-oxo-2H-1,3,4-thiadiazin-5-yl)-1H-indole-2,3-dione 3-(2-pyridylhydrazone) monohydrochloride]
21 | 5 ± 2 | +0.40 ± 0.02 |  |  | CC1SC(=O)NN=C1c1ccc2c(c1)C(=NNc1ccc(C(=O)O)cc1)C(=O)N2 (stereo not drawn) [Example 34]
22 | 3 ± 1 | +0.37 ± 0.05 |  |  | CC#N.CC1SC(=O)NN=C1c1ccc2c(c1)C(=NNc1ccc(S(C)(=O)=O)cc1)C(=O)N2 (stereo not drawn) [Example 33]
